Series [1] deals with T1, recombinant human N-myristoyltransferase 1 (rNMT1) (Homo sapiens, UniProt P30419).
T1 construct: Full-length HsNMT1 enzyme was produced as previously described; made in house
T1 sequence (P30419 1-496): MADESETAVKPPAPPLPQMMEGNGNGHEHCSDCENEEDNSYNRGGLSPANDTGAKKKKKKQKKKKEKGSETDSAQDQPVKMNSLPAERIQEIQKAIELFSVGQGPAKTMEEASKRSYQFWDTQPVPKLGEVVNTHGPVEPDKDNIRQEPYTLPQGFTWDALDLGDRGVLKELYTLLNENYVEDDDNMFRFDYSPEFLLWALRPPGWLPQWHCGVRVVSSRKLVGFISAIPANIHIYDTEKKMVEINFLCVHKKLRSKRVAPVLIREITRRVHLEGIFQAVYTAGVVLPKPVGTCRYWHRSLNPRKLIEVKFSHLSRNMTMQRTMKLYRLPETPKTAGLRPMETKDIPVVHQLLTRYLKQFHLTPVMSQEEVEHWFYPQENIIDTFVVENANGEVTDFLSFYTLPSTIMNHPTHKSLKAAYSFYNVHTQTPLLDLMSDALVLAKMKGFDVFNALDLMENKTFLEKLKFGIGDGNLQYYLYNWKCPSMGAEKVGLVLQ
Nature of the series: Enzymatic HsNMT1 assay (CPM detection of CoA thiol by-product). The note with it: recombinant human NMT1; mean of two independent assays in triplicate; values for 3 and 4 extrapolated; read-out: In Vitro IC50, This Article. In kind it is biochemical. As to the method:
After background correction, IC50 values were determined by fitting the four-parametric variable slope function (GraphPad Prism 5.0), with the stated IC50 values being the mean of two independent assays performed in triplicate.

The nature of series [2]: Precipitation in rNMT1 buffer, absorbance at 750 nm. Format: physicochemical. The following applies: 15 min at room temperature. As to the method:
Absorbance at 750 nm was determined after 15 min at room temperature.
and 72 h. Mean of quadruplicate measurements, ± SEM.
(E) Nuclei counts of HeLa cells after exposure to 1-5 for 24, 48 and 72 h. Mean of quadruplicate

A further series has as its system MDA-MB-231 cells. Kind of series: Nuclei counting as a measure for proliferation. The following applies: time- and concentration-dependent, 24, 48, 72 h, read-out: IC50 of proliferation (nuclei counts). Format: cell-based, human. As to the method:
After 24, 48 or 72 h of exposure, cell viability was evaluated by determination of metabolic activity and counting of cellular nuclei. Metabolic activity was assessed by addition of Cell Titer Blue (Promega), incubation at 37°C and the appropriate percentage of CO2 for 3 h, followed by measuring the absorbance at 490 nm using a PHERAstar (BMG LabTech, Germany). For nuclei counting, cells were fixed with 4% (w/v) paraformaldehyde at room temperature (RT) for 20 min, permeabilised with 0.2% (v/v) Triton X-100 in PBS at RT for 20 min, DNA stained with 1 μg/mL DAPI (Life Technologies, D1306) at RT for 1 h, followed by three washes with PBS. Whole well images for the total number of cells were acquired with an Acumen Cellista (TTP Labtech), using the 405 nm excitation / FL1 (420-500 nm) emission channel. The cell viability was normalised to the negative control (DMSO) and positive control (Staurosporin and puromycin), followed by fitting the four-parametric variable slope function (GraphPad Prism 5.0) to data of quadruplicate experiments.

The subject of series [3] is N-myristoylated proteome (NMT substrates). Kind of series: Quantitative chemical proteomics of YnMyr-tagged proteins. Format: cell-based, human. The following applies: MDA-MB-231 (n = 75). The source says:
HeLa and MDA-MB-231 cells were exposed (in triplicate) to 1–5, in a setup identical to that used for in-gel analyses (Figure 2A), with the exception that YnMyr-tagged proteins were ligated to AzRB. Labeled proteins were enriched on NeutrAvidin-agarose and digested on-resin with trypsin; peptides were labeled with tandem mass tag, and analyzed and quantified by nano-liquid chromatography-tandem mass spectrometry on a Thermo Q-Exactive instrument.
Cysteine carbamidomethylation was used as a fixed modification and methionine oxidation and N-terminal acetylation as variable modifications. ‘Trypsin/P’ was chosen as digestion mode enzyme, and up to two missed cleavages were allowed. The ‘match between run’ option was selected, along with ‘unique and razor peptides’ for protein quantification. TMT was set per sample group. […] The false discovery rate was set to 0.01 for peptides and a minimum of 2 unique peptides per protein were required. The mass spectrometry proteomics data have been deposited to the ProteomeXchange Consortium via the PRIDE partner repository with the dataset identifier PXD012722.

Series [4] relates to de novo protein synthesis. Kind of series: L-AHA tagging of de novo protein synthesis. The note with it: MDA-MB-231 and HeLa; 18 h; 30 μM 4, 10 μM 5. Format: cell-based, human. The source says:
Cells were subsequently harvested as described before (see Myristic Acid Analogue (YnMyr) Tagging Experiments).

Series [5] relates to MDA-MB-231 and HeLa cells. Nature of the series: Bright-field microscopy. In kind it is cell-based, human. The note with it: both cell lines; 18 h; 30 μM 4, 10 μM 5.
A further series has as its system human NMTs. The note with it: ref Bhandarkar et al., 2008; read-out: In Vitro IC50, Reported; cited from earlier work.
Another series concerns human NMT1. The following applies: ref Rampoldi et al., 2012; cited from earlier work.
Another series has as its system A375 melanoma. On the set-up: method as in Bhandarkar et al., 2008. The following applies: 11 μM 5, ref Bhandarkar et al., 2008; cited from earlier work.
The test system of the next series is NMT2. The note with it: ref Rampoldi et al., 2012; cited from earlier work.
Series [6] is described as follows: Precipitation in growth media.
A further series has as its system Jurkat cells. Nature of the series: Metabolic activity (Cell Titer Blue). The following applies: Jurkat (suspension); 10 μM 5 for 72 h.
Series [7] deals with NMT within living cells (N-myristoylation). Nature of the series: YnMyr metabolic tagging, in-gel fluorescence.
In series [8] the test system is HeLa cells. Nature of the series: Apoptosis, active caspase-3 staining by FACS. The note with it: 18 h, 30 μM 4, 10 μM 5.
Series [9] concerns HeLa cells. Nature of the series: Cell-cycle distribution by FACS (DNA content, EdU). The following applies: 18 h, 30 μM 4, 10 μM 5.
Series [10] deals with NMT (in-cell target engagement, ARL1). Kind of series: Sortase A assay (peptide addition to ARL1), human cell lines. The following applies: A375, NCI-H929 and PANC1 cells; 10, 1 and 0.1 μM 5.
Description: The homogenate was further disrupted by shearing it three times through a 30G needle. […] Hereafter the reaction was quenched with 5 mM EDTA and stored at −20°C until further analysis.

The text below walks through data of article PMC6593224, “Validation and Invalidation of Chemical Probes for the Human N-myristoyltransferases” (Cell Chemical Biology, 2019).

“Also recorded” adds a separate entry of the source.

Consider `O=C(/C=C/c1ccccc1)/C=C/c1ccccc1.O=C(/C=C/c1ccccc1)/C=C/c1ccccc1.O=C(/C=C/c1ccccc1)/C=C/c1ccccc1.[Pd].[Pd]` [Compound 5, Tris (dibenzylideneacetone) di-palladium], for which the IC50 is 4200 nM in series [1], approximately 300 nM in the series with MDA-MB-231 cells and 500 to 1300 nM with human NMTs. Further, in series [2], the “concentration at which the compound precipitated (absorbance at 750 nm)” value is 10 µM. Moreover, in series [3], the “hierarchical one-minus Pearson correlation clustering of enrichment of N-myristoylated proteins” value is “do not affect NMT activity”. The “decrease in L-AHA labeling” value in series [4] was 40%–80%. The cell morphology result in [5] is “exhibited this phenotype”. Further, the “NMT1 inhibition (claimed selectivity NMT1 vs NMT2)” value in the series on human NMT1 was 0.5 µM. Also, the “decrease in cell count” value with A375 melanoma is listed as 96%. In addition, the “NMT2 inhibition (claimed selectivity NMT1 vs NMT2)” value with NMT2 is 1.3 µM. Moreover, in series [6] (cell culture media, black rod-shaped crystals), the “precipitation in the media” value is “precipitated in the media”. Also, the “concentrations at which precipitation in growth media was most notable” value in [6] (growth media of multiple cell lines) is “over 1 μM”. Also, the “effect on metabolic activity” value in the series on Jurkat cells is on record as “no effect”. In [7] (1 μM IMP-366, 100 nM IMP-1088, 100 μM 2-hydroxymyristic acid, 30 μM D-NMAPPD, 10 μM Tris-DBA palladium, 18 h), the “N-myristoylation in cells (summary of assays)” value is “unaffected; also recorded: does not inhibit NMT in cells”. In addition, the “quantification of YnMyr tagging of ten bands” value in [7] (MDA-MB-231 and HeLa, 100 μM 3, 30 μM 4, 10 μM 5) was “at most a minor reduction”. The “induction of apoptosis compared with MDA-MB-231” value in the series on HeLa cells [8] is recorded as “less induction of apoptosis”. Also, in the series with HeLa cells [9], the “depletion of S phase compared with MDA-MB-231” value was “correspondingly lower depletion of S phase”. In addition, the “NMT inhibition (sortase A) and cytotoxicity” value in series [10] was “cytotoxic in the absence NMT inhibition”.
